Experiments:
YAP-TEAD interaction = assay: SK-HEP-1 reporter assay (8xTEAD responsive elements driving NanoLuc luciferase); type: cell-based
How it was run: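 SK-HEP-1 cells stably carrying 8×TEAD-driven NanoLuc treated in duplicate, 10-point dose from 30 μM final, 0.3% DMSO, 24 h at 37° C. Luminescence after NanoGlo lysis/substrate addition; IC50 calculated from dose response.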

NCI-H226 cells = assay: Viability assay in NCI-H226 (Yap-dependent) cells, CyQuant; type: cell-based, human; conditions: class symbols
How it was run: (§1)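 Seeded cells were dosed 24 h later in duplicate (10-point, 1:3 dilutions, top 30 μM final, 0.3% DMSO) and incubated 96 h at 37 °C. Viability was read with CyQUANT DNA dye after 1 h, fluorescence bottom read. NCI-H226 in RPMI 1640 medium; SW620 YAP/TAZ CRISPR knockout in DMEM/F-12 medium.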

SW620 Yap KO cells = assay: Viability assay in SW620 Yap KO (Yap independent) cells, CyQuant; type: cell-based; conditions: Homo sapiens, SW-620, 96 h
How it was run: as §1

[1] = Homo sapiens, SK-HEP1, SK-HEP-1 reporter assay, class symbols
[2] = n.d. = value not detectable below threshold given in parentheses, ND = not determinable within the entire range
[3] = Homo sapiens, SK-HEP1, SK-HEP-1 reporter assay, n.d. = value not detectable below threshold given in parentheses, ND = not determinable within the entire range
[4] = n.d. = value not detectable below threshold given in parentheses

| Compound | IC50 (YAP-TEAD interaction; [1]) [nM] | IC50 (NCI-H226 cells; Homo sapiens, NCI-H226, 96 h) [nM] | IC50 (SW620 Yap KO cells; [2]) [nM] | IC50 (YAP-TEAD interaction; [3]) [nM] | IC50 (YAP-TEAD interaction; SK-HEP-1 reporter assay, class symbols) [nM] | IC50 (NCI-H226 cells; 96 h) [nM] | IC50 (SW620 Yap KO cells; class symbols) [nM] | IC50 (SW620 Yap KO cells; [4]) [nM] |
| --- | --- | --- | --- | --- | --- | --- | --- | --- |
| Cn1cc2c3cc(N=S(C)(C)=O)ccc3n(-c3ccc(C(F)(F)F)cc3)c2n1 [Example C106, dimethyl({2-methyl-8-[4-(trifluoromethyl)phenyl]-2H,8H-pyrazolo[3,4-b]indol-5-yl}imino)-\6-sulfanone] | 10 to 100 | 100 to 1000 | > 30000 | – | – | – | – | – |
| Cn1cc2c3nc(C(=O)N=S(C)(C)=O)ccc3n(-c3ccc(C(F)(F)F)cc3)c2n1 [Example C108, N-[dimethyl(oxo)-λ^6-sulfanylidene]-4-methyl-7-[4-(trifluoromethyl)phenyl]-4,5,7,12-tetraazatricyclo [6.4.0.0^∧{^2,6}]dodeca-1(8),2,5,9,11-pentaene-11-carboxamide] | – | 100 to 1000 | > 30000 | > 30000 | – | – | – | – |
| Cn1cc2c3cc(C(=O)O)cnc3n(-c3ccc(C(F)(F)F)cc3)c2n1 [Example C110, 4-methyl-7-[4-(trifluoromethyl)phenyl]-4,5,7,9-tetraazatri-cyclo[6.4.0.0^2,6]dodeca-1(8),2,5,9,11-pentaene-11-carboxylic acid] | – | – | > 30000 | – | 10 to 100 | 100 to 1000 | – | – |
| Cn1cc2c3nc(C(=O)N=S(C)(=O)CCCO)ccc3n(-c3ccc(C(F)(F)F)cc3)c2n1 (stereo not drawn) [Example C117, N-[(3-hydroxypropyl)(methyl)oxo- \6-sulfanylidene]-4-methyl-7-[4-(trifluoromethyl)phenyl]-4,5,7,12-tetraazatricyclo[6.4.0.0^2,6∧{2,6}]dodeca-1(8),2,5,9,11-pentaene-11-carboxamide] | – | 100 to 1000 | > 30000 | > 1000 | – | – | – | – |
| C[C@H](NC(=O)c1ccc2c(n1)c1cn(C)nc1n2-c1ccc(C(F)(F)F)cc1)c1ccccn1 [Example C119, 4-methyl-N-[(1S)-1-(pyridin-2-yl)ethyl]-7-[4-(trifluoromethyl)phenyl]-4,5,7,12-tetraazatricyclo[6.4.0.0^2,6]dodeca-1(8),2,5,9,11-pentaene-11-carboxamide] | 10 to 100 | 1 to 100 | > 30000 | – | – | – | – | – |
| Cc1snc2c1c1cc(C(N)=O)ccc1n2-c1ccc(C(F)(F)F)cc1 [Example C120, 3-methyl-8-[4-(trifluoromethyl)phenyl]-8H-[1,2]thiazolo[3,4-b]indole-5-carboxamide] | 10 to 100 | 1 to 100 | > 30000 | – | – | – | – | – |
| Cc1snc2c1c1cc(C(=O)NCCn3ccnc3)ccc1n2-c1ccc(C(F)(F)F)cc1 [Example C121] | 10 to 100 | 1 to 100 | > 30000 | – | – | – | – | – |
| C[C@@H](NC(=O)c1ccc2c(c1)c1cn(C)nc1n2-c1ccc(C(F)(F)F)cc1)c1ccncc1 [Example C122, 2-methyl-N-[(1R)-1-(pyridin-4-yl)ethyl]-8-[4-(trifluoromethyl)phenyl]-2H,8H-pyrazolo[3,4-b]indole-5-carboxamide] | 10 to 100 | 100 to 1000 | > 30000 | – | – | – | – | – |
| CNC(=O)c1ccc2c(c1)c1cn(C)nc1n2C12CC(C(F)(F)F)(C1)C2 [Example C125, N,2-dimethyl-8-[3-(trifluoromethyl)bicyclo[1.1.1]pentan-1-yl]-2H,8H-pyrazolo[3,4-b]indole-5-carboxamide] | 10 to 100 | 100 to 1000 | > 3000 | – | – | – | – | – |
| Cn1cc2c3cc(C(=O)O)ccc3n(-c3ccc(C(F)(F)F)cn3)c2n1 [Example C126, 2-methyl-8-[5-(trifluoromethyl)pyridin-2-yl]-2H,8H-pyrazolo[3,4-b]indole-5-carboxylic acid] | 10 to 100 | 100 to 1000 | > 3000 | – | – | – | – | – |
| Cc1ccc(-n2c3ccc(C(=O)N[C@H](C)CO)cc3c3cn(C)nc32)cc1 [Example C131, N-[(2R)-1-hydroxypropan-2-yl]-2-methyl-8-(4-methylphenyl)-2H,8H-pyrazolo[3,4-b]indole-5-carboxamide] | 100 to 10000 | 100 to 1000 | > 30000 | – | – | – | – | – |
| Cn1nc2c3cc(C(=O)NCc4ccccc4)ccc3n(-c3ccc(C(F)(F)F)cc3)c2n1 [Example C134, N-benzyl-2-methyl-4-[4-(trifluoromethyl)phenyl]-2H,4H-[1,2,3]triazolo[4,5-b]indole-7-carboxamide] | 10 to 100 | 1 to 100 | > 30000 | – | – | – | – | – |
| CNC(=O)c1ccc2c(c1)c1cn(C)nc1n2-c1ccc(C(F)(F)F)cn1 [Example C147, N,2-dimethyl-8-[5-(trifluoromethyl)pyridin-2-yl]-2H,8H-pyrazolo[3,4-b]indole-5-carboxamide] | 10 to 100 | 1 to 100 | > 30000 | – | – | – | – | – |
| C[C@H](CO)NC(=O)c1ccc2c(c1)c1cn(C)nc1n2-c1ccc(C(F)(F)F)cn1 [Example C148, N-[(2R)-1-hydroxypropan-2-yl]-2-methyl-8-[5-(trifluoromethyl)pyridin-2-yl]-2H,8H-pyrazolo[3,4-b]indole-5-carboxamide] | 10 to 100 | 1 to 100 | > 30000 | – | – | – | – | – |
| Cn1cc2c3cc(C(=O)N=S(C)(C)=O)ccc3n(-c3ccc(C(F)(F)F)cn3)c2n1 [Example C149, N-[dimethyl(oxo)-λ^6-sulfanylidene]-2-methyl-8-[5-(trifluoromethyl)pyridin-2-yl]-2H,8H-pyrazolo[3,4-b]indole-5-carboxamide] | – | 1 to 100 | > 30000 | > 320 | – | – | – | – |
| Cn1cc2c3cc(C(=O)N[C@@H](CO)c4ccccn4)ccc3n(-c3ccc(C(F)(F)F)cn3)c2n1 [Example C150, N-[(1R)-2-hydroxy-1-(pyridin-2-yl)ethyl]-2-methyl-8-[5-(trifluoromethyl)pyridin-2-yl]-2H,8H-pyrazolo[3,4-b]indole-5-carboxamide] | 10 to 100 | 1 to 100 | – | – | – | – | 10000 to 30000 | – |
| C[C@@H](CO)C(=O)Nc1ccc2c(c1)c1cn(C)nc1n2-c1ccc(C(F)(F)F)cc1 [Example C153, (2S)-3-hydroxy-2-methyl-N-{2-methyl-8-[4-(trifluoromethyl)phenyl]-2H,8H-pyrazolo[3,4-b]indol-5-yl}propanamide] | 10 to 100 | 1 to 100 | > 30000 | – | – | – | – | – |
| CON(C)C(=O)c1ccc2c(c1)c1cn(C)nc1n2-c1ccc(C(F)(F)F)cc1 [Example C156, N-methoxy-N,2-dimethyl-8-[4-(trifluoromethyl)phenyl]-2H,8H-pyrazolo[3,4-b]indole-5-carboxamide] | 10 to 100 | 1 to 100 | > 30000 | – | – | – | – | – |
| Cn1nc2c3cc(C(=O)NC[C@H](O)C(F)(F)F)ccc3n(-c3ccc(C(F)(F)F)cc3)c2n1 [Example C159, 2-methyl-N-[(2S)-3,3,3-trifluoro-2-hydroxypropyl]-4-[4-(trifluoromethyl)phenyl]-2H,4H-[1,2,3]triazolo[4,5-b]indole-7-carboxamide] | 10 to 100 | 1 to 100 | > 3000 | – | – | – | – | – |
| Cn1nc2c3cc(C(=O)NC[C@@H](O)C(F)(F)F)ccc3n(-c3ccc(C(F)(F)F)cc3)c2n1 [Example C160, 2-methyl-N-[(2R)-3,3,3-trifluoro-2-hydroxypropyl]-4-[4-(trifluoromethyl)phenyl]-2H,4H-[1,2,3]triazolo[4,5-b]indole-7-carboxamide] | 10 to 100 | 1 to 100 | > 30000 | – | – | – | – | – |
| Cn1cc2c3cc(C(=O)O)ccc3n(-c3ccc(C(F)(F)F)c(F)c3)c2n1 [Example C164, 8-[3-fluoro-4-(trifluoromethyl)phenyl]-2-methyl-2H,8H-pyrazolo[3,4-b]indole-5-carboxylic acid] | 10 to 100 | 1 to 100 | – | – | – | – | – | > 30000 |
| CNC(=O)c1ccc2c(c1)c1cn(C)nc1n2-c1ccc(C(F)(F)F)c(F)c1 [Example C166, 8-[3-fluoro-4-(trifluoromethyl)phenyl]-N,2-dimethyl-2H,8H-pyrazolo[3,4-b]indole-5-carboxamide] | 10 to 100 | 1 to 100 | – | – | – | – | – | > 3200 |
| C[C@H](CO)NC(=O)c1ccc2c(c1)c1cn(C)nc1n2-c1ccc(C(F)(F)F)c(F)c1 [Example C167, 8-[3-fluoro-4-(trifluoromethyl)phenyl]-N-[(2R)-1-hydroxypropan-2-yl]-2-methyl-2H,8H-pyrazolo[3,4-b]indole-5-carboxamide] | 10 to 100 | 1 to 100 | – | – | – | – | – | > 30000 |
| Cn1cc2c3cc(C(=O)N=S(C)(C)=O)ccc3n(-c3ccc(C(F)(F)F)c(F)c3)c2n1 [Example C168, N-[dimethyl(oxo)-lambda6-sulfanylidene]-8-[3-fluoro-4-(trifluoromethyl)phenyl]-2-methyl-2H,8H-pyrazolo[3,4-b]indole-5-carboxamide] | 10 to 100 | 1 to 100 | – | – | – | – | – | > 3200 |
| Cn1cc2c3cc(C(=O)N[C@@H](CO)c4ccccn4)ccc3n(-c3ccc(C(F)(F)F)c(F)c3)c2n1 [Example C169, 8-[3-fluoro-4-(trifluoromethyl)phenyl]-N-[(1R)-2-hydroxy-1-(pyridin-2-yl)ethyl]-2-methyl-2H,8H-pyrazolo[3,4-b]indole-5-carboxamide] | 10 to 100 | 1 to 100 | – | – | – | – | – | > 3200 |
| Cn1cnc2c1c1cc(C=O)ccc1n2-c1ccc(C(F)(F)F)cc1 [Example C174, 1-methyl-4-[4-(trifluoromethyl)phenyl]-1H,4H-imidazo[4,5-b]indole-7-carbaldehyde] | 10 to 100 | 1 to 100 | – | – | – | – | – | > 30000 |
